Assay results from ChEMBL document CHEMBL1157937, “Discovery of novel leukotriene A4 hydrolase inhibitors based on piperidine and piperazine scaffolds” (Bioorg Med Chem Lett, 2010).

Columns and labels:
[1] = target: T1, Leukotriene A-4 hydrolase (Homo sapiens, UniProt P09960)
T1 sequence (P09960 whole entry): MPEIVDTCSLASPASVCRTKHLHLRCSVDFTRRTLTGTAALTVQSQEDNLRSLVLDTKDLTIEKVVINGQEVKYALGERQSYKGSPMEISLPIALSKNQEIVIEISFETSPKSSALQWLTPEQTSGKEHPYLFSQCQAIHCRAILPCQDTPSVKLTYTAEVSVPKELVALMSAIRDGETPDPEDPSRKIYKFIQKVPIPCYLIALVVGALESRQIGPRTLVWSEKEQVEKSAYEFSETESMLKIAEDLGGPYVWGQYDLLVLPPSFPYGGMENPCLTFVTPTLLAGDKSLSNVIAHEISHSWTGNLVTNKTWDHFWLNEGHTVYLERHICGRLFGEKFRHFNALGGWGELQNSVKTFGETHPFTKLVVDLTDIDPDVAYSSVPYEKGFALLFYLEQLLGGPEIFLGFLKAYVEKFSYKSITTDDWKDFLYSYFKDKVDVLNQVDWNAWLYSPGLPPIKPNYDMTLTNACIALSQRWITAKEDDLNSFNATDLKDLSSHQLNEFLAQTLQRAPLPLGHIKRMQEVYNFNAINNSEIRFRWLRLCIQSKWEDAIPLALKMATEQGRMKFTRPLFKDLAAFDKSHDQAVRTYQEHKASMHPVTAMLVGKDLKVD
Description: Inhibition of human recombinant LTA4H hydrolysis assessed as inhibition of LTB4 formation by LC-MS/MS

[2] = target: T1, Leukotriene A-4 hydrolase; remark: listed apart in the source
Description: Inhibition of human LTA4H hydrolysis assessed as inhibition of Ca2+ ionophore-stimulated LTB4 formation in human whole blood by ELISA

Row | IC50 [1] | IC50 [2] | Compound
1 | 96 nM | 29 nM | c1ccc(-c2ccc(Oc3ccc(OC[C@H]4CCCCN4)cc3)cc2)cc1
2 | 438 nM |  | Clc1ccc(Cc2ccc(OC[C@@H]3CCCCN3)cc2)cc1
3 | 6900 nM |  | Clc1ccc(Oc2ccc(OC[C@@H]3CCCCN3Cc3ncon3)cc2)cc1
4 | 106 nM | 23 nM | O=C(O)CCCN1CCCC[C@H]1COc1ccc(Oc2ccc(Cl)cc2)cc1
5 | 114 nM | 43 nM | c1ccc(-c2ccc(Oc3ccc(OC[C@@H]4CCCCN4)cc3)cc2)cc1
6 | 44 nM | 286 nM | c1ccc(Oc2ccc(OC[C@@H]3CCCCN3)cc2)cc1
7 | 315 nM |  | Clc1ccc(Cc2ccc(OC[C@H]3CCCCN3)cc2)cc1
8 | 93 nM | 173 nM | FC(F)(F)c1ccc(Oc2ccc(OC[C@H]3CCCCN3)cc2)cc1
9 | 880 nM |  | O=C(O)CN1CCCC[C@H]1COc1ccc(Oc2ccc(Cl)cc2)cc1
10 | 94 nM | 60 nM | c1ccc(Cc2ccc(OC[C@H]3CCCCN3)cc2)cc1
11 | 70 nM | 207 nM | c1ccc(Oc2ccc(OCC3CCCCN3)cc2)cc1 (racemic)
12 | 174 nM | 90 nM | Fc1ccc(Oc2ccc(OC[C@@H]3CCCCN3)cc2)cc1
13 | 48 nM | 126 nM | c1ccc(Oc2ccc(OC[C@H]3CCCCN3)cc2)cc1
14 | 60 nM |  | c1cc(-c2ccc(Cc3ccc(OC[C@@H]4CCCCN4)cc3)cc2)cs1
15 | 134 nM | 105 nM | c1ccc(Cc2ccc(OCC3CCCCN3)cc2)cc1 (racemic)
16 | 212 nM |  | O=C(O)CCN1CCCC[C@H]1COc1ccc(Oc2ccc(Cl)cc2)cc1
17 | 53 nM | 6 nM | O=C(O)CCCN1CCCC[C@@H]1COc1ccc(Oc2ccc(Cl)cc2)cc1
18 | 110 nM | 40 nM | Clc1ccc(Oc2ccc(OC[C@@H]3CCCCN3)cc2)cc1

Row | Compound | IC50 [1] | IC50 [2]
19 | c1ccc(Cc2ccc(OCC3CNCCN3)cc2)cc1 (configuration not stated) | 342 nM | 
20 | c1ccc(Cc2ccc(OCC3CN(Cc4ccccc4)CCN3)cc2)cc1 (configuration not stated) | 660 nM | 
